Data from patent EP0448811A1, “New pharmaceutical composition with anti-inflammatory activity” (SCLAVO S.p.A., priority 1989, dated 1991).

Legend:
[1] = test system: adjuvant-induced arthritis in the rat; assay: adjuvant-induced arthritis in the rat (secondary lesion, uninjected paw volume by water plethysmometer); format: in vivo, consanguineous Lewis rats
plasma peptidase = conditions: compared with natural tuftsin (I); cited from earlier work

## gThr-mLys-Pro-Arg-OH [R-T]
[1]; administered orally
  effectiveness relative to natural tuftsin: at least 10 times
[1]; intraperitoneally (i.p.), 0.1 mg/kg, three times per week until the 38th day
  reduction in secondary lesion development: appreciable reduction in secondary lesion development, which is statistically significant only during the initial days of treatment
[1]; oral (intragastric intubation), 0.1 mg/kg, three times per week from day 0 until the 38th day, paw volume from the 14th day
  anti-inflammatory activity (reduction in the volume of the uninjected paw): considerable anti-inflammatory activity
[1]; subcutaneously (s.c.), 0.1 mg/kg, three times per week until the 38th day
  reduction in secondary lesion: no statistically significant reduction in secondary lesion
Plasma peptidase
  stability towards plasma peptidase: greater stability towards plasma peptidase
